Among the test systems are 786-0 renal; CAKI-1 renal; HOP-62 NSCLC; HS 578T breast; KM12 colon; OVCAR-5 ovarian; RPMI-8226 leukemia; SK-MEL-2 melanoma; SNB-19 CNS; SNB-75 CNS.
What all share (assay): inhibition of tumour cell growth, NCI panel, 48 h

Among the data in PubChem BioAssay (NCI) are TGI and GI50 values, retold here.

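Dose response: 5 concentrations. Exposure: 48 h. Format: 96-well plates. Endpoint: linear interpolation; highest concentration if not reached. GI50 = concentration required for 50% inhibition of growth. TGI is the concentration that stops growth completely.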

For `CCN(CCO)CC1COc2ccccc2O1` (stereo not drawn), the TGI with 786-0 renal, in the assay on CAKI-1 renal, in the assay on HOP-62 NSCLC, in the assay on HS 578T breast, in the assay on KM12 colon and in the assay on OVCAR-5 ovarian was above 100 µM each time.
With `BrC/C=C/C[P+](c1ccccc1)(c1ccccc1)c1ccccc1`, the TGI was above 100 µM in the assay on 786-0 renal; 58.2 µM in the assay with HOP-62 NSCLC; 14.7 µM in the assay on KM12 colon; above 100 µM with OVCAR-5 ovarian; above 100 µM in the assay on RPMI-8226 leukemia; 25.7 µM in the assay with SK-MEL-2 melanoma. For the same compound, the figures for the TGI in the assay with SNB-19 CNS and in the assay on SNB-75 CNS were above 100 µM and 78.3 µM, respectively.
For `Cc1c2c(n(CCc3ccc(Cl)cc3)c1C)NN=C(C#N)S2(=O)=O`, the TGI in the assay on 786-0 renal, with HOP-62 NSCLC, with HS 578T breast, in the assay with KM12 colon, in the assay with OVCAR-5 ovarian and with RPMI-8226 leukemia was above 100 µM each time. Moreover, the TGI with SK-MEL-2 melanoma, with SNB-19 CNS and with SNB-75 CNS was above 100 µM throughout.
`N#C/C(=C\c1cc(Br)c(O)c(Br)c1)c1cccnc1`: the TGI is 70.5 µM with 786-0 renal; above 100 µM in the assay with CAKI-1 renal; 97.2 µM in the assay with HOP-62 NSCLC; above 100 µM in the assay on KM12 colon; above 100 µM in the assay with OVCAR-5 ovarian; 86.3 µM in the assay on RPMI-8226 leukemia. Besides, the TGI with SK-MEL-2 melanoma was 44.4 µM; with SNB-19 CNS, above 100 µM; in the assay with SNB-75 CNS, above 100 µM.
As to `CC(=O)O[C@]12CCCCCC1C1(O)C(O)CCC[C@H]12` (stereo partly drawn), the TGI in the assay on 786-0 renal, with HOP-62 NSCLC, in the assay with KM12 colon, in the assay on RPMI-8226 leukemia, in the assay with SK-MEL-2 melanoma and with SNB-19 CNS was above 100 µM throughout. This compound also displayed a TGI with SNB-75 CNS above 100 µM.
Turning to `CCN(CC)CCOc1ccc(N2C(=O)c3cc(OC)c(OC)cc3C2=O)cc1`, the TGI in the assay with 786-0 renal, with CAKI-1 renal, in the assay with HOP-62 NSCLC, in the assay on HS 578T breast, in the assay on KM12 colon and with OVCAR-5 ovarian was above 100 µM in each case. Further, the TGI with RPMI-8226 leukemia, with SK-MEL-2 melanoma and with SNB-19 CNS was above 100 µM each time.
For `CCOC(=N)n1c(=O)n(C2=NCCN2)c2ccccc21`, the TGI in the assay on 786-0 renal, in the assay with CAKI-1 renal, in the assay with HOP-62 NSCLC, with KM12 colon, with OVCAR-5 ovarian and with SNB-19 CNS was above 100 µM each time. Moreover, the TGI in the assay on SNB-75 CNS is above 100 µM.
For the compound `O=C1C[C@H](Sc2ccccc2)C2(OCCO2)[C@@H](Sc2ccccc2)C1`, the TGI in the assay with 786-0 renal was above 30.2 µM; in the assay on CAKI-1 renal it was 12.8 µM; with HOP-62 NSCLC, 13.6 µM; with HS 578T breast, 5.85 µM; in the assay with KM12 colon, 7.36 µM; with OVCAR-5 ovarian, 12.3 µM. The TGI in the assay on SK-MEL-2 melanoma was 26.3 µM; in the assay with SNB-19 CNS it was above 43.6 µM; in the assay on SNB-75 CNS it was 26 µM.
Regarding `CCOC(=O)/C=C(\C)c1ccc(C)cc1C`, the TGI in the assay on CAKI-1 renal is above 100 µM; with KM12 colon it was above 100 µM; with OVCAR-5 ovarian it was above 100 µM; with RPMI-8226 leukemia, 68.2 µM; with SK-MEL-2 melanoma, above 100 µM; in the assay on SNB-19 CNS, above 100 µM. This compound returned a TGI in the assay with SNB-75 CNS above 100 µM.
As for `O=c1ccc2cc3ccc4cccc5ccc(c2o1)c3c45`, the TGI in the assay with CAKI-1 renal is above 100 µM; with RPMI-8226 leukemia, above 100 µM; in the assay with SK-MEL-2 melanoma it was above 100 µM; in the assay with SNB-19 CNS, above 100 µM; in the assay on SNB-75 CNS, 50 µM.
With `Cc1cc(=O)c2c([nH]1)NS(=O)(=O)NC2=O`, the TGI in the assay on 786-0 renal, with CAKI-1 renal, with HOP-62 NSCLC, in the assay on KM12 colon, in the assay with RPMI-8226 leukemia and in the assay on SK-MEL-2 melanoma was above 100 µM in each case. For the same compound, the TGI in the assay on SNB-19 CNS and in the assay with SNB-75 CNS was above 100 µM throughout.
On to `COCOc1ccc(Cn2c(=O)n(C)c(=O)c3c2ncn3C)cc1[N+](=O)[O-]`, for which the TGI in the assay with 786-0 renal, with KM12 colon, with RPMI-8226 leukemia, in the assay with SNB-19 CNS and in the assay on SNB-75 CNS was above 100 µM each time.
Turning to `COc1cc([N+](=O)[O-])c(OC)cc1-c1nc2sc(Cl)cn2c1/C=N/Nc1ccccn1`, the GI50 with HS 578T breast is 16.8 µM; in the assay with KM12 colon it was above 50 µM; in the assay with RPMI-8226 leukemia it was 30.1 µM; in the assay with SK-MEL-2 melanoma, above 50 µM; in the assay on SNB-19 CNS it was above 50 µM. Further, the TGI in the assay with HS 578T breast, with KM12 colon, in the assay on RPMI-8226 leukemia, in the assay on SK-MEL-2 melanoma and in the assay with SNB-19 CNS was above 50 µM each time.
Turning to `COC(=O)[C@]12CC[C@H]3CN(C(=O)OCc4ccccc4)[C@H]([C@H]31)[C@H](c1ccco1)N2S(=O)(=O)c1ccc(C)cc1`, the TGI with 786-0 renal is 37.6 µM; in the assay on CAKI-1 renal it was 89.4 µM; in the assay on HOP-62 NSCLC, 74.2 µM; with HS 578T breast it was above 100 µM; in the assay with KM12 colon, 38.5 µM; in the assay with OVCAR-5 ovarian, above 100 µM. For the same compound, the TGI with RPMI-8226 leukemia is 35.9 µM; in the assay on SK-MEL-2 melanoma, 49.3 µM; in the assay with SNB-19 CNS it was above 100 µM.
Regarding `COC(=O)c1c2c(cc3c1CC1(C3)Cc3cc4c(c(C(=O)OC)c3C1)CCCC4)CCCC2`, the TGI with 786-0 renal, with HOP-62 NSCLC, with HS 578T breast, in the assay on KM12 colon, in the assay on OVCAR-5 ovarian and in the assay on RPMI-8226 leukemia was above 100 µM in each case. For the same compound, the TGI in the assay with SK-MEL-2 melanoma was 5.18 µM.
As for `C=CCNC(=S)/N=C/c1c(O)c2ccccc2oc1=O`, the TGI in the assay with 786-0 renal is above 100 µM; with CAKI-1 renal it was 82.6 µM; in the assay on KM12 colon, above 100 µM; in the assay on OVCAR-5 ovarian it was above 100 µM; in the assay with RPMI-8226 leukemia, above 100 µM; in the assay on SK-MEL-2 melanoma, above 100 µM. Besides, the TGI with SNB-19 CNS and in the assay with SNB-75 CNS was above 100 µM each time.
